IC50 data for 2 compounds are collected here from ChEMBL document CHEMBL1201862, “PubChem BioAssay data set” (2004).

Calls of active or inactive are those of the source. Rule as the data show it: actives have a measured IC50 and inactives only a lower limit.

The target of this assay is Envelope glycoprotein gp160 (Human immunodeficiency virus 1, UniProt Q6QLK5). Put plainly: inhibitors of HIV fusion peptide binding, primary screen, biochemical, uHTS, fluorescence dequenching (AID 1986).
Sequence of Envelope glycoprotein gp160 (Q6QLK5 whole entry, the tested form may be a part): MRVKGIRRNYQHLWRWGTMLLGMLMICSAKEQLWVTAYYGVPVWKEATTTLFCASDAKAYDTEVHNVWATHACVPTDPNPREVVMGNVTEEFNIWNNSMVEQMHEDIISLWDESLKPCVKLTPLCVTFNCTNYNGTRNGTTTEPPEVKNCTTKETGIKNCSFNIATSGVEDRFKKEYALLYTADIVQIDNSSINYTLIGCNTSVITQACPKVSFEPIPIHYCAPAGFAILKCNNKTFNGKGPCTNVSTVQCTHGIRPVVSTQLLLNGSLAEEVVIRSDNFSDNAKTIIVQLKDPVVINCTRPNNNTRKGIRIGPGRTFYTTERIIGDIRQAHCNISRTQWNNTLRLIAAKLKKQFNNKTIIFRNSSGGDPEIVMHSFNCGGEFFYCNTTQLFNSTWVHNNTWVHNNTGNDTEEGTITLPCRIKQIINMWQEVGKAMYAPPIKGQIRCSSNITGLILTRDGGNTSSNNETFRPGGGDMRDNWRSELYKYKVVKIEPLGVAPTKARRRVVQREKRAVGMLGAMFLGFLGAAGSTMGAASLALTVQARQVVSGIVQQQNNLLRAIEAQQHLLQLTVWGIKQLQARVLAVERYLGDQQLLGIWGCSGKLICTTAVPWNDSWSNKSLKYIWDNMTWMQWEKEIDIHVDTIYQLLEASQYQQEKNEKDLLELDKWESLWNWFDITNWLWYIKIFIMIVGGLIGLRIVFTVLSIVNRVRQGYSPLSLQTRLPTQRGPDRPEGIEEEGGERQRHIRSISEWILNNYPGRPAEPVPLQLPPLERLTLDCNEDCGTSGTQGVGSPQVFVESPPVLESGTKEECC

For `CS(=O)(=O)C1=NSC2=NC(=O)/C(=C\c3ccc(OC(=O)c4ccco4)c(Br)c3)C(=N)N21`, the half-maximal inhibitory concentration (IC50) (as a rule, the concentration that gives 50% inhibition) is 16 µM (active). The result for `Cc1ccc(/C=C2\SC(=S)N(CCCC(=O)Nc3ccccc3C(=O)O)C2=O)cc1` reads 27.8 µM (active).
